Reference: US12336971B2, “Ophthalmic pharmaceutical compositions and uses thereof” (ALCON INC., priority 2021, dated 2025)
Where two headings read alike, the source gives them in different places.

Key:
[1] = Equilibrium solubility of WS-12 in compositions / evaluation of solubilizers (HPLC); format: physicochemical
Procedure: As explained above, WS-12 is insoluble in water. Regardless, it was necessary to identify excipients that would provide WS-12 with a solubility of about 200 μM (0.0058%) in an aqueous medium compatible with administration (e.g., topical administration) to a human (e.g., a human eye). Several solubilizers were evaluated, including PEG 400 (polyethylene glycol 400), KOLLIDON 30 (polyvinylpyrrolidone), propylene glycol, TWEEN 80 (polyoxyethylene (20) sorbitan monooleate), KOLLIPHOR® EL or KOLLIPHOR® ELP (polyoxyl 35 castor oil) and tyloxapol (ethylene oxide-formaldehyde-p-octylphenol copolymer).

[2] = Loss of WS-12 concentration on storage in polyolefin containers; format: physicochemical
Procedure: It was discovered that there is an inverse relationship between the crystallinity of the polyolefin and the amount of WS-12 absorbed into the polyolefin when the pharmaceutical composition is stored in contact with the polyolefin at elevated temperatures (e.g. 40° C.). Crystallinity was measured by determining the melting temperature of the polyolefin by DSC, with higher melting temperatures denoting greater crystallinity.
LDPE 1, LDPE 2, LDPE 3, LDPE 4, and LDPE 5 in Table 12 correspond to LDPEs from different suppliers. Melting point values of the polyolefins were experimentally determined by differential scanning calorimetry (DSC). The densities of the polyolefins were as provided by the manufacturer's product data sheet.

[3] = WS-12 content in blow-fill-seal LDPE containers after curing at 40° C. and storage at 25° C.; format: physicochemical; settings: Formulation 1 in LDPE BFS units; cured 10 days at 40° C., then stored at 25° C. over 140 days; FIG. 8
Procedure: The ‘curing’ technique, or process, described herein exploits the temperature dependence of WS-12 absorption into LDPE to yield a product that is stable when stored at 25° C. In some embodiments, the curing technique includes the following steps: (a) producing the BFS containers filled with an ophthalmic pharmaceutical composition provided herein; (b) storing the filled BFS containers at a first temperature (e.g. 40° C.) to drive WS-12 into the LDPE container with the aim of saturating the container walls with WS-12; and (c) subsequently storing the BFS containers at a second temperature (e.g., 25° C.) whereupon further loss of WS-12 to the container walls is stemmed due to the above described saturation process.
(99A long-term 25° C. trace). The first data point of each line represents the content of WS-12 in the BFS article after the curing period (e.g., the first temperature of storage). The amount of WS-12 lost to the LDPE increased as the duration of curing at 40° C. was increased from 1 day to 10 days. […] After a curing period of 10 days at 40° C. (black circles), the content of WS-12 in the BFS units stored at 25° C. was constant over a period of 140 days.

[4] = Chemical stability of WS-12 to typical drug stressors; format: physicochemical; settings: typical drug stressors (acid, base, peroxide, heat, light)
[5] = JECFA, cited from earlier work

COc1ccc(NC(=O)[C@@H]2C[C@H](C)CC[C@H]2C(C)C)cc1 [WS-12, (1R,2S,5R)-2-isopropyl-N-(4-methoxyphenyl)-5-methylcyclohexane-1-carboxamide]
WS-12 level dissolved ([1]; KOLLIPHOR EL 3% w/v): ≥ 200 µM
Effect on WS-12 solubility ([1]; TWEEN 80, required concentration greater than 4%): significantly increased
solubility ([1]; aqueous medium with solubilizer, aqueous with cosolvent or surfactant or cyclodextrin, thermodynamic from solid, KOLLIDON 30 (polyvinylpyrrolidone), read-out: WS-12 level solubilized): < 200 µM
solubility ([1]; aqueous ophthalmic composition, 2 °C, aqueous with cosolvent or surfactant or cyclodextrin, thermodynamic from solid, in 3% KOLLIPHOR EL, 0.14% hypromellose, 0.78% Na dihydrogen phosphate dihydrate, 0.55% NaCl, pH 7, 2°-8° C., read-out: WS-12 Solubility (mg/mL) 2°-8° C.): 0.041 mg/mL
solubility ([1]; aqueous ophthalmic composition, aqueous with cosolvent or surfactant or cyclodextrin, thermodynamic from solid, in 3% KOLLIPHOR EL, 0.14% hypromellose, 0.78% Na dihydrogen phosphate dihydrate, 0.55% NaCl, pH 7, about 17° C., read-out: WS-12 Solubility (mg/mL) Room Temp (about 17° C.)): 0.055 mg/mL
solubility ([1]; propylene glycol, read-out: WS-12 level solubilized): < 200 µM
solubility ([1]; tyloxapol, read-out: WS-12 level solubilized): < 200 µM
Percent Loss in WS-12 Concentration After Storage in Polyolefin Container for 2 Weeks at 40° C. ([2]; High Density Polyethylene (HDPE)): 1.3%
Percent Loss in WS-12 Concentration After Storage in Polyolefin Container for 2 Weeks at 40° C. ([2]; Low Density Polyethylene (LDPE 1)): 2.8%
Percent Loss in WS-12 Concentration After Storage in Polyolefin Container for 2 Weeks at 40° C. ([2]; Low Density Polyethylene (LDPE 2)): 2.8%
Percent Loss in WS-12 Concentration After Storage in Polyolefin Container for 2 Weeks at 40° C. ([2]; Low Density Polyethylene (LDPE 3)): 3.3%
Percent Loss in WS-12 Concentration After Storage in Polyolefin Container for 2 Weeks at 40° C. ([2]; Low Density Polyethylene (LDPE 4)): 4.0%
Percent Loss in WS-12 Concentration After Storage in Polyolefin Container for 2 Weeks at 40° C. ([2]; Low Density Polyethylene (LDPE 5)): 4.5%
Percent Loss in WS-12 Concentration After Storage in Polyolefin Container for 2 Weeks at 40° C. ([2]; Polypropylene (PP)): 1.3%
Content of WS-12 in the BFS units [3]: constant
Chemical stability [4]: chemically stable
Solubility in avocado oil ([5]; avocado oil): sparingly soluble
Solubility in ethanol ([5]; ethanol): sparingly soluble
Solubility in water ([5]; water): insoluble
